Columns and labels:
SWISS CDl mice [1] = test: Electroshock test (anticonvulsant activity); format: in vivo; details: i.p., % of animals not extending the hind paws; for % protection against Electro shock 30 min.: 1/10 of the LD50, 30 min before electroshock; for % protection against Electro shock 4 h: 1/10 of the LD50, 4 hours before electroshock
Procedure: (§1) The anticonvulsant activity is measured by the electroshock and pentetrazole tests according to the procedure of A. SWINYARD (ADD PROGRAM OF NINCDS BY H. J. KUPFERBERG. E. A. SWINYARD AND G. D. GLADDING in Advances in Epileptology/XIIth Epilepsy International Symposium edited by M. DAM, L. GRAM and J. K. PENRY-RAVEN press N.Y. 1981). The compounds are always administered (at 1/10 of the LD50) by IP injections into SWISS CDl mice (Charles River) of 20-25 g mean weight. All of the compounds are dissolved in a 0.9% solution of sodium chloride or suspended in a 1% solution of carboxymethyl cellulose or tween.
Electroshock test. Groups of 10 mice (1 control group and one treated group) are used for each compound. The treated group receives the compound to be tested by the intraperitoneal route either 30 mn before the electroshock or 4 hours before the electroshock. This latter is applied with the aid of corneal electrodes (50 milliamperes for 0.2 second). Protection is measured by the percentage of animals not extending the hind paws.

mice = test: Cerebral protective activity: hypoxia induced by the altitude; format: in vivo; details: i.p., 30 min before closed chamber at 210 mm Hg
Procedure: Five mice (20 to 25 g) receive an administration of the compound or the liquid vehicle by the intraperitoneal route 30 min. before being placed in a closed chamber in which the atmospheric pressure is reduced to 210 mm Hg. The time of survival (in seconds) is measured from the induction of hypoxia to the cessation of respiratory movements.

[2] = Determination of the lethal dose 50 (MILLER and TAINTER); details: in vivo, ip
Procedure: The toxicity is measured by the technique of MILLER and TAINTER by the intraperitoneal route.

SWISS CDl mice [3] = test: Seizures induced by pentetrazole (anticonvulsant activity); format: in vivo; details: i.p., % protected against clonic seizures; for % protection against Pentetrazole 30 mn.: 1/10 of the LD50, 30 mn before pentetrazole 70 mg/kg s.c.; for % protection against Pentetrazole 4 h: 1/10 of the LD50, 4 hours before pentetrazole 70 mg/kg s.c.
Procedure: as §1
Seizures induced by pentetrazole. 70 mg/kg of pentetrazole are injected by the subcutaneous route into groups of 10 mice (1 control group and one treated group) in a volume of 0.2 ml/20 g of body weight. The compounds to be tested are administered either 30 mn before pentetrazole or 4 hours before pentetrazole by the intraperitoneal route. The animals are observed for 30 mn. The number of clonic seizures lasting 5 seconds or more and the percentage of the animals protected against clonic seizures are recorded.

SMILES | % protection against Electro shock 30 min. (SWISS CDl mice [1]) | % protection against Electro shock 4 h (SWISS CDl mice [1]) | hypoxia induced by the altitude; increase time of survival as % of controls (mice) | LD50 ([2]; intraperitoneal route) | % protection against Pentetrazole 30 mn. (SWISS CDl mice [3]) | % protection against Pentetrazole 4 h (SWISS CDl mice [3]) | LD50 [2]
COc1cc(C(=O)Nc2c(C)cccc2C)nn1C [Compound 15, 3-(2,6-dimethylphenylcarbamoyl) 1-methyl 5-methoxy pyrazole] | 10% | 0% | 21 % of controls | 400 mg/kg | 0% | 10% | 
CC(=O)n1nc(C(=O)Nc2c(C)cccc2Cl)cc1C [Compound 2, 3-(2-chloro 6-methylphenylcarbamoyl) 1-acetyl 5-methyl pyrazole] | 100% | 0% |  | 350 mg/kg | 80% | 0% | 
Cc1cccc(C)c1N(C)C(=O)c1cc(C)n(C)n1 [Compound 7] | 70% | 0% |  |  | 30% | 0% | 400 mg/kg
Cc1cccc(C)c1NC(=O)c1cc(COC(=O)c2ccccc2)on1 [Compound 29] | 70% | 0% |  |  | 10% | 10% | 2000 mg/kg
Cc1cccc(C)c1C(=O)Nc1cc(C)n(C)n1 [Compound 3, N-(1,5-dimethyl-3-pyrazolyl)2,6-dimethylbenzamide] | 100% | 0% |  | 1000 mg/kg | 50% | 0% | 
Cc1cccc(C)c1NC(=O)c1cc(CF)on1 [Compound 31, 3-(2,6-dimethylphenylcarbamoyl) 5-fluoromethyl isoxazole] | 100% | 0% |  | 375 mg/kg | 0% | 0% | 
CC(=O)n1nc(C(=O)Nc2c(C)cccc2C)cc1C [Compound 41] | 100% | 0% |  |  | 50% | 0% | 350 mg/kg
Cc1cccc(Cl)c1NC(=O)c1cc(C)n(C)n1 [Compound 5, 3-(2-chloro 6-methylphenylcarbamoyl) 1,5-dimethyl pyrazole] | 100% | 10% |  | 500 mg/kg | 40% | 10% | 
Cc1cccc(C)c1NC(=O)c1cc(C)n(C)n1 [Compound 4, 3-(2,6-dimethylphenylcarbamoyl) 1,5-dimethyl pyrazole] | 100% | 0% | 60 % of controls | 150 mg/kg | 30% | 10% | 
Cc1cc(NC(=O)c2c(C)cccc2C)no1 [Compound 17] | 100% | 0% |  |  | 30% | 20% | 2000 mg/kg
